Results from PMC1968759, “Biological effects of stable overexpression of aromatase in human hormone-dependent breast cancer cells” (British Journal of Cancer, 1994).

B1: aromatase (Homo sapiens) (protein)
chain: MVLEMLNPIHYNITSIVPEAMPAATMPVLLLTGLFLLVWNYEGTSSIPGPGYCMGIGPLISHGRFLWMGIGSACNYYNRVYGEFMRVWISGEETLIISKSSSMFHIMKHNHYSSRFGSKLGLQCIGMHEKGIIFNNNPELWKTTRPFFMKALSGPGLVRMVTVCAESLKTHLDRLEEVTNESGYVDVLTLLRRVMLDTSNTLFLRIPLDESAIVVKIQGYFDAWQALLIKPDIFFKISWLYKKYEKSVKDLKDAIEVLIAEKRRRISTEEKLEECMDFATELILAEKRGDLTRENVNQCILEMLIAAPDTMSVSLFFMLFLIAKHPNVEEAIIKEIQTVIGERDIKIDDIQKLKVMENFIYESMRYQPVVDLVMRKALEDDVIDGYPVKKGTNIILNIGRMHRLEFFPKPNEFTLENFAKNVPYRYFQPFGFGPRGCAGKYIAMVMMKAILVTLLRRFHVKTLQGQCVESIQKIHDLSLHPDETKNMLEMIFTPRNSDRCLEH

Assays:
aromatase = molecular target: T1, aromatase (Homo sapiens, UniProt P11511); assay: cell-based
T1 construct: gene CYP19A1; human placental aromatase cDNA (nucleotides 16-1539) stably expressed in MCF-7 cells (clone Arom. 1)
T1 sequence (P11511 1-503): B1 chain

[1] = substrate: C[C@]12CCC(=O)C=C1CC[C@@H]1[C@@H]2CC[C@]2(C)C(=O)CC[C@@H]12; assay: cells, lysate or membranes

| Molecule | IC50 (aromatase) [nM] | Km [1] [nM] |
| --- | --- | --- |
| C[C@]12CCC(=O)C(O)=C1CC[C@@H]1[C@@H]2CC[C@]2(C)C(=O)CC[C@@H]12 [4-hydroxyandrostenedione] | 70 |  |
| B1 |  | 70 |
